ChEMBL document CHEMBL3244408, “Synthesis and analgetic activity of some benzomorphan analogues” (1978)

Test system: Mus musculus
Assay: Analgetic activity in sc dosed albino DD mouse by tail pressure stimuli method
Format: functional

SMILES	ED50 [mg/kg]
Br.CN1CC2CC1Cc1ccc(O)cc12 (stereo unspecified)	43
CC(O)C(=O)O.CN1CC2Cc3ccc(O)cc3C1C2 (stereo unspecified)	29.1
CN1CCC2Cc3ccc(O)cc3C1C2 (stereo unspecified)	17.2
CN1CCCC2Cc3ccc(O)cc3C1C2.Cl.O (stereo unspecified)	15
Br.CN1CCCC2(C)CC1Cc1ccc(O)cc12 (stereo unspecified)	4.1
Br.C[C@@H]1C2Cc3ccc(O)cc3C1(C)CCN(C)C2 (stereo partly specified)	1
Br.CN1CCC2Cc3ccc(O)cc3C(C2)C1 (stereo unspecified)	38.8
Br.CN1CC2Cc3ccc(O)cc3C(C)(C2)C1 (stereo unspecified)	8.4
CC1NCC2Cc3ccc(O)cc3C1C2 (stereo unspecified)	4.5
COc1ccc2c3c1O[C@H]1[C@@H](O)C=C[C@H]4[C@@H](C2)N(C)CC[C@@]341.COc1ccc2c3c1O[C@H]1[C@@H](O)C=C[C@H]4[C@@H](C2)N(C)CC[C@@]341.O.O=P(O)(O)O.O=P(O)(O)O [CODEINE PHOSPHATE]	9.2
CN1CC[C@]23c4c5ccc(O)c4O[C@H]2[C@@H](O)C=C[C@H]3[C@H]1C5.Cl [MORPHINE HYDROCHLORIDE]	1.2
